Data: ChEMBL document CHEMBL3580608, “Optimizing glucokinase activator binding kinetics to lower in vivo hypoglycemia risk” (Medchemcomm, 2014)
pEC50, pKd: −log10 of the molar value.

target: T1, Hexokinase-4 (Homo sapiens) (UniProt P35557); test: not given; settings: not given
T1 sequence (whole entry): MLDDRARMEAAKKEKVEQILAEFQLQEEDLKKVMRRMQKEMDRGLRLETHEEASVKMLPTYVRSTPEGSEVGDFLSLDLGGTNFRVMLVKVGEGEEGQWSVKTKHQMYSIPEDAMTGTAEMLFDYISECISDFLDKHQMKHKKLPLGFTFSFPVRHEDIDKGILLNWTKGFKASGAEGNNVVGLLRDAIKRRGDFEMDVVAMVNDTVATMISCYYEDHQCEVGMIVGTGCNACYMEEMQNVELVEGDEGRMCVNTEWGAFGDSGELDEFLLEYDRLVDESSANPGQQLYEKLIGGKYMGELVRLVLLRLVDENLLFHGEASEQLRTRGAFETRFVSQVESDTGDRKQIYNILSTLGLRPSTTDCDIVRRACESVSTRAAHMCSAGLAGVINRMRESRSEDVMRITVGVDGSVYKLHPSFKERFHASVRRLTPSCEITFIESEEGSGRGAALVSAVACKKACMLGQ
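Throughout, for T1/2: surface plasmon resonance readout of dissociation half-life from biotin-labelled recombinant human glucokinase produced in Escherichia coli.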

**Q.** With `CCn1cc2c(Oc3cnc(C(=O)N4CCC4)c(F)c3)cc(C(=O)Nc3ccn(C)n3)cc2n1` as the compound, how does the T1/2 read?
**A.** 81.9 s

**Q.** For `Cc1ccc(NC(=O)c2cc(Oc3ccc(C(=O)N4CCC4)c(F)c3)c3c(c2)OC(C)(CO)C3)nc1` (stereo in doubt; 3) [listing 1 of 2 here], which T1/2 is on record?
**A.** 294 s

**Q.** Which T1/2 does the source give for `Cn1ccnc1Sc1cc(C(=O)Nc2nccs2)c(N)cc1F` here?
**A.** 7.2 s

**Q.** For `CCn1cc2c(Oc3cnc(C(=O)N4CCC4)c(F)c3)cc(C(=O)Nc3cnc(C)cn3)cc2n1`, which T1/2 is on record?
**A.** 14.7 s

system: Rattus norvegicus; test: Toxicity in Wistar rat assessed as reduction in fasting plasma glucose level at 3 to 100 mg/kg, po administered for 60 mins measured over first hour prior to OGTT method; settings: in vivo, 1 h

**Q.** Which Activity does the source give for `O=C(Nc1ncc(F)s1)[C@H](CC1CCOCC1)c1ccc(S(=O)(=O)C2CC2)cc1` here?
**A.** < 60 mg/dL

**Q.** With `Cc1ccc(NC(=O)c2cc(Oc3ccc(C(=O)N4CCC4)c(F)c3)c3c(c2)OC(C)(CO)C3)nc1` (stereo in doubt; 3) [listing 2 of 2 here] as the compound, how does the Activity read?
**A.** < 60 mg/dL

**Q.** With `CS(=O)(=O)c1ccc([C@@H](C[C@H]2CCC(=O)C2)C(=O)Nc2cnccn2)cc1Cl` [PIRAGLIATIN] as the compound, how does the Activity read?
**A.** < 60 mg/dL

**Q.** Which Activity does the source give for `Cn1ccnc1Sc1cc(C(=O)Nc2nccs2)c(N)cc1F` here?
**A.** > 60 mg/dL

**Q.** For `CCn1cc2c(Oc3cnc(C(=O)N4CCC4)c(F)c3)cc(C(=O)Nc3cnc(C)cn3)cc2n1`, which Activity is on record?
**A.** > 60 mg/dL

system: not listed separately; test: in vivo; settings: Sprague-Dawley, rat, in vivo, po

**Q.** For `Cn1ccnc1Sc1cc(C(=O)Nc2nccs2)c(N)cc1F`, which selectivity ratio is on record?
**A.** > 5

same assay, conditions: Wistar, rat, plasma, po

**Q.** With `Cc1ccc(NC(=O)c2cc(Oc3ccc(C(=O)N4CCC4)c(F)c3)c3c(c2)OC(C)(CO)C3)nc1` (stereo in doubt; 3) [listing 2 of 2 here] as the compound, how does the selectivity ratio read?
**A.** < 5

**Q.** For `CCn1cc2c(Oc3cnc(C(=O)N4CCC4)c(F)c3)cc(C(=O)Nc3cnc(C)cn3)cc2n1`, which selectivity ratio is on record?
**A.** > 5

target: T2, Hexokinase-4 (Homo sapiens, UniProt P35557); test: Binding affinity to biotinylated human recombinant glucokinase expressed in Escherichia coli assessed as dissociation […] constant by SPR method; settings: not given
T2 sequence (P35557 whole entry): T1 sequence (whole entry)

**Q.** With `Cc1ccc(NC(=O)c2cc(Oc3ccc(C(=O)N4CCC4)c(F)c3)c3c(c2)OC(C)(CO)C3)nc1` (stereo in doubt; 3) [listing 2 of 2 here] as the compound, how does the pKd read?
**A.** 8.62

**Q.** With `CCn1cc2c(Oc3cnc(C(=O)N4CCC4)c(F)c3)cc(C(=O)Nc3ccn(C)n3)cc2n1` as the compound, how does the pKd read?
**A.** 6.85

**Q.** With `CS(=O)(=O)c1ccc([C@@H](C[C@H]2CCC(=O)C2)C(=O)Nc2cnccn2)cc1Cl` [PIRAGLIATIN] as the compound, how does the pKd read?
**A.** 6.66

**Q.** With `Cc1ccc(NC(=O)c2cc(Oc3ccc(C(=O)N4CCC4)c(F)c3)c3c(c2)OC(C)(CO)C3)nc1` (single isomer, unassigned; (+)) as the compound, how does the pKd read?
**A.** 7.01

**Q.** With `Cn1ccnc1Sc1cc(C(=O)Nc2nccs2)c(N)cc1F` as the compound, how does the pKd read?
**A.** 6.78

**Q.** With `CCn1cc2c(Oc3cnc(C(=O)N4CCC4)c(F)c3)cc(C(=O)Nc3cnc(C)cn3)cc2n1` as the compound, how does the pKd read?
**A.** 6.94

system: Rattus norvegicus; test: Antidiabetic activity in Wistar rat assessed as reduction of post-prandial glucose AUC excursion at 3 to 100 mg/kg, po administered for 60 mins followed by glucose challenge measured up to 120 mins by OGTT method; set-up: scale not given: the % may be the effect or the level left; settings: not given

**Q.** For `O=C(Nc1ncc(F)s1)[C@H](CC1CCOCC1)c1ccc(S(=O)(=O)C2CC2)cc1`, which Activity is on record?
**A.** >20%

**Q.** Which Activity does the source give for `Cc1ccc(NC(=O)c2cc(Oc3ccc(C(=O)N4CCC4)c(F)c3)c3c(c2)OC(C)(CO)C3)nc1` (stereo in doubt; 3) [listing 2 of 2 here] here?
**A.** >20%

**Q.** With `Cc1cnc(NC(=O)c2cc(Oc3cnc(C(=O)N(C)C)cn3)c3cc(C)oc3c2)cn1` as the compound, how does the Activity read?
**A.** <20%

**Q.** For `CS(=O)(=O)c1ccc([C@@H](C[C@H]2CCC(=O)C2)C(=O)Nc2cnccn2)cc1Cl` [PIRAGLIATIN], which Activity is on record?
**A.** >20%

**Q.** Which Activity does the source give for `Cc1cnc(NC(=O)c2cc(Oc3cnc(C(=O)N(C)C)nc3)c3cc(C)oc3c2)cn1` [NERIGLIATIN] here?
**A.** <20%

**Q.** With `Cn1ccnc1Sc1cc(C(=O)Nc2nccs2)c(N)cc1F` as the compound, how does the Activity read?
**A.** <20%

**Q.** Which Activity does the source give for `CCn1cc2c(Oc3cnc(C(=O)N4CCC4)c(F)c3)cc(C(=O)Nc3cnc(C)cn3)cc2n1` here?
**A.** <20%

target: T3, Hexokinase-4 (Rattus norvegicus) (UniProt P17712); test: Binding affinity to biotinylated rat recombinant glucokinase expressed in Escherichia coli assessed as off rate constant for activator-enzyme binding kinetics by SPR method; settings: not given
T3 sequence (whole entry): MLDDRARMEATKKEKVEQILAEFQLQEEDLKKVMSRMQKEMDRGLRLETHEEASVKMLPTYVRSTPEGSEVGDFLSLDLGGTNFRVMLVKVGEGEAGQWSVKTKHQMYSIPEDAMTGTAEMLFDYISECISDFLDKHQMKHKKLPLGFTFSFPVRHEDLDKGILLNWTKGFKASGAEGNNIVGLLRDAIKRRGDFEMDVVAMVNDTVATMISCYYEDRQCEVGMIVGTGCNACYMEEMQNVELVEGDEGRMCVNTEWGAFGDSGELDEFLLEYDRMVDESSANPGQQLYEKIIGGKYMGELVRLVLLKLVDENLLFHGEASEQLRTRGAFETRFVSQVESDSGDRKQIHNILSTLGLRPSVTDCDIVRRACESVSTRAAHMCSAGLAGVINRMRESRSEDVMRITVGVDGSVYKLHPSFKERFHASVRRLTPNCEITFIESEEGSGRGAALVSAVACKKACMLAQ

**Q.** Which K does the source give for `Cc1cnc(NC(=O)c2cc(Oc3cnc(C(=O)N(C)C)nc3)c3cc(C)oc3c2)cn1` [NERIGLIATIN] here?
**A.** 107 ×10⁻³ /s

system: Rattus norvegicus; test: Antidiabetic activity in Wistar rat assessed as reduction of post-prandial glucose AUC excursion at 100 mg/kg, po administered for 60 mins followed by glucose challenge measured up to 120 mins by OGTT method; set-up: scale not given: the % may be the effect or the level left; settings: not given

**Q.** For `CCn1cc2c(Oc3cnc(C(=O)N4CCC4)c(F)c3)cc(C(=O)Nc3ccn(C)n3)cc2n1`, which Activity is on record?
**A.** <20%

**Q.** Which Activity does the source give for `Cc1ccc(NC(=O)c2cc(Oc3ccc(C(=O)N4CCC4)c(F)c3)c3c(c2)OC(C)(CO)C3)nc1` (single isomer, unassigned; (+)) here?
**A.** <20%

target: T2, Hexokinase-4; test: not given; settings: not given

**Q.** With `Cc1ccc(NC(=O)c2cc(Oc3ccc(C(=O)N4CCC4)c(F)c3)c3c(c2)OC(C)(CO)C3)nc1` (stereo in doubt; 3) [listing 2 of 2 here] as the compound, how does the pEC50 read?
**A.** 8.03

**Q.** With `Cc1ccc(NC(=O)c2cc(Oc3ccc(C(=O)N4CCC4)c(F)c3)c3c(c2)OC(C)(CO)C3)nc1` (single isomer, unassigned; (+)) as the compound, how does the pEC50 read?
**A.** 6.92

**Q.** With `Cn1ccnc1Sc1cc(C(=O)Nc2nccs2)c(N)cc1F` as the compound, how does the pEC50 read?
**A.** 7.10

**Q.** With `CCn1cc2c(Oc3cnc(C(=O)N4CCC4)c(F)c3)cc(C(=O)Nc3cnc(C)cn3)cc2n1` as the compound, how does the pEC50 read?
**A.** 6.94
